Key:
[1] = Estimation of shelf life of palm oil (Rancimat temperature extrapolation); conditions: 200 ppm
Method: (§2) This is an aid for estimating the shelf life of oils and fats. The extrapolation makes use of the relationship between the measured induction time and the temperature given by van't Hoff's law. Several measurements are made at different temperatures and then extrapolated to the storage temperature. The values so obtained allow estimation of the storage stability of the oil or fat containing PRESOL.
(§3) The shelf life is calculated using Rancimat shelf life calculator.

[2] = Estimation of shelf life of sunflower oil (Rancimat temperature extrapolation); conditions: 200 ppm
Method: as §2, §3

[3] = Peroxide value of palm oil on storage
Method: (§4) The shelf life of oil is studied by carrying out chemical analysis, which include studying peroxide value (represents extent of primary oxidation), Para-anisidine value (represents extent of secondary oxidation) and totox value (reflects total oxidation of oil). These parameters are determined for 1 kg of untreated oil and treated oil at every 15 days interval for samples stored at ambient temperature and at every 7 days interval for samples stored at 50° C. The treated oil being, the oil upon addition of 200 ppm of TBHQ (sample-A), 200 ppm of BHA (sample-B), 200 ppm and 500 ppm of pulverized green tea extract with 90% polyphenol (sample-C), 200 ppm and 500 ppm of rosemary extract (sample-D), 200 ppm and 500 ppm of green tea extract after cryogenic grinding (sample-E), 200 ppm and 500 ppm of crude green tea extract (sample-F) and PRESOL at 200 ppm and 500 ppm. The untreated oil is the control sample without any antioxidant.
(§5) The threshold limit for per oxide value under which oil can be used for safe consumption is 10 meq of O2/Kg oil. Similarly, the threshold limit of para-anisidine value and Totox value is 10 and 30, respectively.

[4] = Para-anisidine value of palm oil on storage
Method: as §4, §5

[5] = Totox value of palm oil on storage; conditions: for days after which Totox value crosses threshold limit: threshold 30
Method: as §4, §5

Shelf life of canola oil = conditions: 200 ppm
Method: D. Determination of Shelf Life of Canola Oil in the Presence of PRESOL • Shelf life of canola oil is analyzed upon adding 200 ppm of TBHQ (sample-A), BHA (sample-B), green tea extract with 90% polyphenol (sample-C), rosemary extract (sample-D), green tea extract after cryogenic grinding (sample-E), and PRESOL, respectively to canola oil.

[6] = Frying cycle analysis of palm oil (total polar compounds); conditions: palm oil
Method: (§1) Palm oil and sunflower oil with antioxidants added to it are obtained from a local refinery. Frying studies are carried out with control oil and by adding TBHQ (Sample A), BHA (Sample B), GT Pulverized (Sample C), ROS (Sample D), GT Cryo grinded (Sample E), GT Crude Extract (Sample F) and PRESOL, respectively to the oils. Experiments are carried out a concentration of 200 ppm and 500 ppm. Fresh potatoes of less reduced sugar content variety are used throughout the experiment which is purchased form a local supermarket. Oil samples are withdrawn from the fryer at the end of every day and stored at −4° C. until it is tested for quality parameters viz, total polar compounds. Polar compounds present in oil and fats are measured by column chromatography using standard method, ES ISO 8420:2012.

[7] = Frying cycle analysis of sunflower oil (total polar compounds); conditions: for Total Polar compounds of sunflower oil: 200 ppm
Method: as §1

[8] = Effect of particle size on antioxidant activity (Rancimat induction time) in palm oil; conditions: 200 ppm in palm oil; Rancimat 120° C.
Method: (§6) Effect of particle size analysis on antioxidant activity is analysed with the help of Rancimat (Metrohm 743) which gives oxidative stability index based on the induction time (h). Rancimat analysis is carried out at two different temperature in order to set relationship between induction time and temperature of the studies.
(§7) In this, we have analyzed the particle size of samples with the help of Particle Size Analyzer (Microtrac, S3500) and its antioxidant activity with the help of Rancimat (Metrohm 743).

[9] = Effect of particle size on antioxidant activity (Rancimat induction time) in sunflower oil; conditions: 200 ppm in sunflower oil; Rancimat 100° C.
Method: as §6, §7

[10] = Oil stability index (Rancimat) of palm oil; conditions: 200 ppm
Method: (§8) As used herein, ‘Oil Stability Index (OSI)’ is an American Oil Chemists Society (AOCS) approved method that determines the relative resistance of fat and oil samples to oxidation, which is defined by the following equation—
(§9) The oil stability index is determined using the Metrohm's Rancimat (Metrohm 743 Rancimat).
4.0 g of palm oil is weighed into the reaction vessel. The reaction vessel filled with oil is placed in a heating block. The temperature of the block is maintained at 100° C., 120° C. and 140° C., respectively. The oil is heated at the said temperatures, followed by passing air at a flow rate of 20 L/h. Flowing of air through the oil produces peroxides during primary oxidation and organic acids having low molecular weight, aldehydes and ketones with typical rancid odor during the secondary oxidation phase. These compounds are conveyed by the air flow into measurement vessel containing distilled water where conductivity is being checked continuously by sensor.

[11] = Oil stability index (Rancimat) of almond oil; conditions: 200 ppm; for Induction Time: in h
Method: as §9
4.0 g of almond oil is weighed into the reaction vessel. The reaction vessel filled with oil is placed in a heating block. The temperature of the block is maintained at 100° C., 120° C. and 140° C., respectively. The oil is heated at the said temperatures, followed by passing air at a flow rate of 20 L/h. […] These compounds are conveyed by the air flow into measurement vessel containing distilled water where conductivity is being checked continuously by sensor.
The above experiment is repeated by adding 200 ppm of BHA (sample-B), 200 ppm of BHT (sample-B1), 500 ppm of alpha tocopherol (sample-B2) and PRESOL at 200 ppm, 500 ppm and 1000 ppm, respectively to almond oil. From the above experiment, oxidative stability index of untreated oil (control) and treated oil is calculated and the below table illustrates the induction time and the obtained oxidative stability.

[12] = Oil stability index (Rancimat) of apricot oil; conditions: 200 ppm; for Induction Time at 200 ppm: in h
Method: as §8, §9
4.0 g of apricot oil is weighed into the reaction vessel. The reaction vessel filled with oil is placed in a heating block. The temperature of the block is maintained at 100° C., 120° C. and 140° C., respectively. The oil is heated at the said temperatures, followed by passing air at a flow rate of 20 L/h. Flowing of air through the oil produces peroxides during primary oxidation and organic acids having low molecular weight, aldehydes and ketones with typical rancid odor during the secondary oxidation phase. These compounds are conveyed by the air flow into measurement vessel containing distilled water where conductivity is being checked continuously by sensor.
The above experiment is repeated by adding 200 ppm of BHA (sample-B), 200 ppm of BHT (sample-B1), 500 ppm of alpha tocopherol (sample-B2) and PRESOL at 200 ppm, 500 ppm and 1000 ppm, respectively to apricot oil.

[13] = Oil stability index (Rancimat) of sunflower oil; conditions: 200 ppm
Method: as §8, §9
4.0 g of sunflower oil is weighed into the reaction vessel. The reaction vessel filled with oil is placed in a heating block. The temperature of the block is maintained at 80° C., 100° C. and 120° C., respectively. The oil is heated at the said temperatures, followed by passing air at a flow rate of 20 L/h. Flowing of air through the oil produces peroxides during primary oxidation and organic acids having low molecular weight, aldehydes and ketones with typical rancid odor during the secondary oxidation phase. These compounds are conveyed by the air flow into measurement vessel containing distilled water where conductivity is being checked continuously by sensor.

[14] = ambient temperature, day 0, 200 ppm
[15] = ambient temperature, day 15, 200 ppm
[16] = ambient temperature, day 30, 200 ppm
[17] = ambient temperature, day 45, 200 ppm
[18] = ambient temperature, day 60, 200 ppm
[19] = ambient temperature, day 75, 200 ppm
[20] = ambient temperature, day 90, 200 ppm
[21] = ambient temperature, day 105, 200 ppm
[22] = ambient temperature, day 120, 200 ppm
[23] = ambient temperature, day 135, 200 ppm
[24] = ambient temperature, day 150, 200 ppm
[25] = ambient temperature, day 165, 200 ppm
[26] = ambient temperature, day 180, 200 ppm

Question: Which results are given for COc1ccc(O)c(C(C)(C)C)c1 [Sample B, butylated hydroxyanisole]?
Answer: Shelf Life (days) at 30° C. [1]: 260.9 days; Shelf Life (days) at 30° C. [2]: 87.2 days; Peroxide value ([3]; 50° C., day 0, 200 ppm): 0.482; Peroxide value ([3]; 50° C., day 7, 200 ppm): 4.735; Peroxide value ([3]; 50° C., day 15, 200 ppm): 9.973; Peroxide value ([3]; 50° C., day 22, 200 ppm): 13.062; Peroxide value ([3]; 50° C., day 30, 200 ppm): 16.45; Peroxide value ([3]; 50° C., day 37, 200 ppm): 35.595; Peroxide value ([3]; 50° C., day 45, 200 ppm): 60.884; Peroxide value ([3]; 50° C., day 52, 200 ppm): 51.15; Peroxide value ([3]; 50° C., day 60, 200 ppm): 42.269; Peroxide value ([3]; 50° C., day 67, 200 ppm): 34.974; Peroxide value ([3]; 50° C., day 75, 200 ppm): 25.576; Peroxide value ([3]; 50° C., day 82, 200 ppm): 11.31; Peroxide value ([3]; 50° C., day 90, 200 ppm): 15.231; Peroxide value [3, 14]: 0.465; Peroxide value [3, 15]: 0.868; Peroxide value [3, 16]: 1.691; Peroxide value [3, 17]: 2.684; Peroxide value [3, 18]: 4.034; Peroxide value [3, 19]: 4.748; Peroxide value [3, 20]: 5.034; Peroxide value [3, 21]: 5.316; Peroxide value [3, 22]: 6.307; Peroxide value [3, 23]: 7.887; Peroxide value [3, 24]: 8.617; Peroxide value [3, 25]: 11.307; Peroxide value [3, 26]: 12.75; days after which peroxide value crosses threshold limit ([3]; ambient temperature, threshold 10 meq of O2/Kg oil): 165 days; Para-anisidine value ([4]; 50° C., day 0, 200 ppm): 2.69; Para-anisidine value ([4]; 50° C., day 7, 200 ppm): 3.186; Para-anisidine value ([4]; 50° C., day 15, 200 ppm): 4.011; Para-anisidine value ([4]; 50° C., day 22, 200 ppm): 4.204; Para-anisidine value ([4]; 50° C., day 30, 200 ppm): 5.542; Para-anisidine value ([4]; 50° C., day 37, 200 ppm): 5.617; Para-anisidine value ([4]; 50° C., day 45, 200 ppm): 5.794; Para-anisidine value ([4]; 50° C., day 52, 200 ppm): 5.827; Para-anisidine value ([4]; 50° C., day 60, 200 ppm): 6.165; Para-anisidine value ([4]; 50° C., day 67, 200 ppm): 6.22; Para-anisidine value ([4]; 50° C., day 75, 200 ppm): 6.269; Para-anisidine value ([4]; 50° C., day 82, 200 ppm): 6.503; Para-anisidine value ([4]; 50° C., day 90, 200 ppm): 6.657; Para-anisidine value [4, 14]: 2.566; Para-anisidine value [4, 15]: 2.602; Para-anisidine value [4, 16]: 3.18; Para-anisidine value [4, 17]: 2.899; Para-anisidine value [4, 18]: 2.759; Para-anisidine value [4, 19]: 2.952; Para-anisidine value [4, 20]: 3.113; Para-anisidine value [4, 21]: 3.455; Para-anisidine value [4, 22]: 3.499; Para-anisidine value [4, 23]: 3.593; Para-anisidine value [4, 24]: 3.759; Para-anisidine value [4, 25]: 4.169; Para-anisidine value [4, 26]: 4.493; days after which Totox value crosses threshold limit ([5]; 50° C.): 180 days; Totox value [5, 14]: 3.497; Totox value [5, 15]: 4.338; Totox value [5, 16]: 6.561; Totox value [5, 17]: 8.268; Totox value [5, 18]: 10.827; Totox value [5, 19]: 12.449; Totox value [5, 20]: 13.181; Totox value [5, 21]: 14.088; Totox value [5, 22]: 16.114; Totox value [5, 23]: 19.368; Totox value [5, 24]: 20.994; Totox value [5, 25]: 26.783; Totox value [5, 26]: 29.993; days after which Totox value crosses threshold limit ([5]; ambient temperature): 180 days; Shelf Life (No. Of Days) (Shelf life of canola oil): 37 days; frying cycle after which threshold limit for total polar compounds is crossed [6]: 40 cycle; Total Polar compounds of sunflower oil ([7]; frying cycle 0): 3.515; Total Polar compounds of sunflower oil ([7]; frying cycle 8): 6.958; Total Polar compounds of sunflower oil ([7]; frying cycle 16): 14.124; Total Polar compounds of sunflower oil ([7]; frying cycle 24): 20.105; Total Polar compounds of sunflower oil ([7]; frying cycle 32): 26.085; Total Polar compounds of sunflower oil ([7]; frying cycle 40): 31.692; frying cycle after which threshold limit for total polar compounds is crossed ([7]; sunflower oil): 40 cycle; Induction Period (h) of PO at 120° C. [8]: 9.88 h; Induction Period (h) of SFO 100° C. [9]: 13.33 h; Induction Time ([10]; 100° C.): 43.33 h; Oxidative Stability Index (OSI) ([10]; 100° C.): 1.04; Induction Time ([10]; 120° C.): 9.88 h; Oxidative Stability Index (OSI) ([10]; 120° C.): 1.02; Induction Time ([10]; 140° C.): 2.51 h; Oxidative Stability Index (OSI) ([10]; 140° C.): 1.02; Oxidative Stability Index (OSI) ([11]; 100° C.): 1.14; Induction Time ([11]; 100° C.): 25.14; Oxidative Stability Index (OSI) ([11]; 120° C.): 1.21; Induction Time ([11]; 120° C.): 6.11; Oxidative Stability Index (OSI) ([11]; 140° C.): 1.11; Induction Time ([11]; 140° C.): 1.52; Oxidative Stability Index (OSI) ([12]; 100° C.): 1.08; Induction Time at 200 ppm ([12]; 100° C.): 29.16; Oxidative Stability Index (OSI) ([12]; 120° C.): 1.13; Induction Time at 200 ppm ([12]; 120° C.): 6.66; Oxidative Stability Index (OSI) ([12]; 140° C.): 1.06; Induction Time at 200 ppm ([12]; 140° C.): 1.57; Induction Time ([13]; 80° C.): 50.39 h; Oxidative Stability Index (OSI) ([13]; 80° C.): 1.38; Induction Time ([13]; 100° C.): 13.33 h; Oxidative Stability Index (OSI) ([13]; 100° C.): 1.43; Induction Time ([13]; 120° C.): 2.64 h; Oxidative Stability Index (OSI) ([13]; 120° C.): 1.12
